The source of these data is ChEMBL document CHEMBL4422609, “Overview of the Development of Glutaminase Inhibitors: Achievements and Future Directions” (J Med Chem, 2019).

By IC50 is commonly meant the concentration that inhibits the measured activity by half. Higher therefore signals a need for much substance. What is called TGI is the reduction of tumour growth relative to the control group.

The nature of assay [1]: Inhibition of KGA (unknown origin). Also noted: species or system Homo sapiens.
Assay [2] is described as follows: Inhibition of KGA (unknown origin) using glutamine as substrate preincubated for 20 mins followed by substrate addition and measured after 2 hrs. More on the design: species or system Homo sapiens.
The test system of assay [3] is RPMI-8226. The experiment in a line: Antitumor activity against human RPMI8226 cells xenografted in mouse assessed as tumor growth inhibition at 200 mg/kg, po administered BID relative to control. The assay is classed as functional. Conditions: RPMI-8226, po, read-out: TGI. On the technique in general: In xenograft studies the graft and the host belong to different species.

Assay [4] is described as follows: Antitumor activity against human CTG-0052 cells xenografted in mouse assessed as tumor growth inhibition at 200 mg/kg, po administered BID relative to control. It counts as functional. Conditions: read-out: TGI.
The test system of assay [5] is JIMT-1. The experiment in a line: Antitumor activity against human JIMT1 cells xenografted in mouse assessed as tumor growth inhibition at 200 mg/kg, po administered BID relative to control. The note with it: JIMT-1, po, read-out: TGI. It counts as functional.
In assay [6] the test system is NCI-H1650. The experiment in a line: Antitumor activity against human NCI-H1650 cells harboring EGFR mutant xenografted in mouse assessed as tumor growth inhibition relative to control. The assay is classed as functional.
Assay [7] has as its system NCI-H1650. The experiment in a line: Antitumor activity against human NCI-H1650 cells harboring EGFR mutant xenografted in mouse assessed as tumor growth inhibition co-treated with erlotinib relative to control. The assay is classed as functional.
Assay [8] in a line: Antiproliferative activity against human MDA-MB-231met2 cells. It counts as functional, cell-based.
Assay [9] relates to NCI-H2122. The experiment in a line: Antitumor activity against human NCI-H2122 cells harboring KRAS mutant xenografted in mouse assessed as tumor growth inhibition co-treated with selumetinib relative to control. The assay is classed as functional.
In assay [10] the test system is RPMI-8226. The experiment in a line: Antitumor activity against human RPMI8226 cells xenografted in mouse assessed as tumor growth inhibition at 200 mg/kg, po administered BID co-treated with pomalidomide relative to control. The assay is classed as functional. The note with it: RPMI-8226, po, read-out: TGI.
The subject of assay [11] is NCI-H2122. The experiment in a line: Antitumor activity against human NCI-H2122 cells harboring KRAS mutant xenografted in mouse assessed as tumor growth inhibition relative to control. The assay is classed as functional.
Assay [12] in a line: Inhibition of GAC (unknown origin). Also noted: species or system Homo sapiens.
The test system of assay [13] is JIMT-1. The experiment in a line: Antitumor activity against human JIMT1 cells xenografted in mouse assessed as tumor growth inhibition at 200 mg/kg, po administered BID co-treated with paclitaxel relative to control. It counts as functional. Conditions: JIMT-1, po, read-out: TGI.
In assay [14] the test system is RPMI-8226. The experiment in a line: Antitumor activity against human RPMI8226 cells xenografted in mouse assessed as tumor growth inhibition at 1 mg/kg, po administered QD relative to control. It counts as functional. The note with it: RPMI-8226, po, read-out: TGI.
The nature of assay [15]: Inhibition of GAC (unknown origin) by fluorescence labeling-based assay. More on the design: species or system Homo sapiens.
In assay [16] the test system is JIMT-1. The experiment in a line: Antitumor activity against human JIMT1 cells xenografted in mouse assessed as tumor growth inhibition at 10 mg/kg, po administered every other day for 5 doses relative to control. The assay is classed as functional. Conditions: JIMT-1, po, read-out: TGI.

Each structure is given as a SMILES string.

Take `O=C(Cc1ccccc1)Nc1nnc(CCSCCc2nnc(NC(=O)Cc3ccccc3)s2)s1`: the IC50 in assay [1] is 3 µM; in assay [2] it was 0.16 µM. With `O=C(Cc1cccc(OC(F)(F)F)c1)Nc1ccc(CCCCc2nnc(NC(=O)Cc3ccccn3)s2)nn1`, the inhibition in vivo at 200 mg/kg was 64% in assay [3]; 61% in assay [4]; 54% in assay [5]; 97% in [10]; 100% in assay [13]. Also, the TGI in [6] is recorded as 26%; in assay [7], 89%; in assay [9] it was 78%; in [11], 46%. Moreover, the 50% inhibitory concentration (IC50) in assay [8] was 0.002 to 0.3 µM; in [12] it was 0.02 µM. In turn, `CN(C)c1ccc(C2Nc3ccc4ccccc4c3C3=C2C(=O)CC(C)(C)C3)cc1Br` (centres undefined) registered a concentration for half-maximal inhibition (IC50) in [12] of 9.3 µM. This lies in the single-digit micromolar range. Take `Nc1cccc2c1C(=O)N(C1CCC(=O)NC1=O)C2=O` (centres undefined) [POMALIDOMIDE]: the inhibition in vivo at 1 mg/kg in assay [14] worked out at 46%. `CC(C)c1ccc(C2Nc3ccc4ccccc4c3C3=C2C(=O)CC(C)(C)C3)cc1` (centres undefined) returned an IC50 in [12] of 20 µM. The compound `CN(C)c1ccc(C2Nc3ccc(C(C)(C)C)cc3C3=C2C(=O)CC(C)(C)C3)cc1Br` (centres undefined) registered a half-maximal inhibitory concentration (IC50) in assay [15] of 4.5 µM. Consider `CN(C)c1ccc(C2Nc3ccc4ccccc4c3C3=C2C(=O)CC(C)(C)C3)cc1` (centres undefined), for which the IC50 in [12] was 50 µM. As to `CN(C)c1ccc(C2Nc3ccc4cc5ccccc5cc4c3C3=C2C(=O)CC(C)(C)C3)cc1Br` (centres undefined), the IC50 in [15] was determined as 1.5 µM. Take `CC(=O)O[C@H]1C(=O)[C@@]2(C)[C@H]([C@H](OC(=O)c3ccccc3)[C@]3(O)C[C@H](OC(=O)[C@H](O)[C@@H](NC(=O)c4ccccc4)c4ccccc4)C(C)=C1C3(C)C)[C@]1(OC(C)=O)CO[C@@H]1C[C@@H]2O` [PACLITAXEL]: in assay [16], the inhibition in vivo at 10 mg/kg was found to be 73%. On to `Cn1cnc2c(F)c(Nc3ccc(Br)cc3Cl)c(C(=O)NOCCO)cc21` [SELUMETINIB], for which the TGI in assay [11] is on record as 49%.

In turn, `CC1(C)CC(=O)C2=C(C1)c1c(ccc3ccccc13)NC2c1ccc(C(C)(C)C)cc1` (centres undefined) came in with an IC50 in assay [15] of 10 µM. `O=C(Cc1ccccc1)Nc1nnc([C@@H]2CCC[C@@H](c3nnc(NC(=O)Cc4ccccc4)s3)C2)s1` (racemic) had an IC50 in assay [2] of 0.1 µM. `C#Cc1cccc(Nc2ncnc3cc(OCCOC)c(OCCOC)cc23)c1` [ERLOTINIB]: the tumour growth inhibition (TGI) in assay [6] worked out at 66%.
